Source: the NIST ThermoML archive (doi:10.1021/acs.jced.7b01031)
± gives the expanded uncertainty stated by the source.

Details: Pulse-echo method

Cl [hydrogen chloride]
Liquid
Details	speed of sound [m/s]
218.3 K	940 ± 3
224.3 K	910 ± 3
229.2 K	887 ± 3
233.1 K	865 ± 3
243 K	814 ± 3
248 K	790 ± 4
252.9 K	762 ± 4
258 K	734 ± 4
263 K	705 ± 4
268 K	676 ± 5
273 K	646 ± 5

Fluid (supercritical or subcritical phases)
Details	speed of sound [m/s]
267 K, 7500 kPa	735 ± 6
269.9 K, 9700 kPa	740 ± 6
274.8 K, 13900 kPa	751 ± 5
279.8 K, 5500 kPa	634 ± 7
279.8 K, 18000 kPa	761 ± 5
284.8 K, 8500 kPa	640 ± 7
284.8 K, 22200 kPa	773 ± 4
289.7 K, 11800 kPa	652 ± 7
289.8 K, 26500 kPa	783 ± 4
292.9 K, 6900 kPa	564 ± 9
294.8 K, 15600 kPa	666 ± 6
294.8 K, 30800 kPa	794 ± 4
295 K, 8000 kPa	567 ± 9
299.8 K, 19200 kPa	678 ± 6
300 K, 11100 kPa	582 ± 9
300 K, 35100 kPa	805 ± 4
303.1 K, 37700 kPa	810 ± 4
305 K, 14200 kPa	595 ± 8
305 K, 22900 kPa	690 ± 6
305 K, 39300 kPa	814 ± 4
310 K, 17300 kPa	608 ± 7
310 K, 26300 kPa	700 ± 5
315 K, 20400 kPa	621 ± 7
315 K, 30000 kPa	712 ± 5
320 K, 10800 kPa	425 ± 15
320 K, 23500 kPa	632 ± 6
320 K, 33600 kPa	722 ± 4
325 K, 12900 kPa	441 ± 9
325 K, 26600 kPa	643 ± 6
325 K, 37200 kPa	732 ± 4
328 K, 39300 kPa	738 ± 4
330 K, 15100 kPa	456 ± 9
330 K, 29800 kPa	654 ± 5
335 K, 17200 kPa	469 ± 9
335 K, 32900 kPa	665 ± 5
340 K, 19300 kPa	482 ± 10
340 K, 36000 kPa	675 ± 5
345 K, 21500 kPa	494 ± 8
345 K, 39200 kPa	685 ± 5
350 K, 23700 kPa	506 ± 7
355 K, 25900 kPa	517 ± 6
359.9 K, 21500 kPa	433 ± 9
360 K, 28000 kPa	527 ± 8
365 K, 30200 kPa	537 ± 7
369.9 K, 24900 kPa	454 ± 8
370 K, 32400 kPa	547 ± 5
374.9 K, 34600 kPa	556 ± 5
379.9 K, 28400 kPa	473 ± 6
379.9 K, 36800 kPa	565 ± 6
385.9 K, 39400 kPa	575 ± 7
389.9 K, 31800 kPa	491 ± 6
394.9 K, 22700 kPa	371 ± 6
399.9 K, 12100 kPa	324 ± 2
399.9 K, 35300 kPa	508 ± 6
404.9 K, 24800 kPa	386 ± 5
409.9 K, 21600 kPa	356 ± 5
411.9 K, 39500 kPa	526 ± 6
414.9 K, 26900 kPa	400 ± 6
419.9 K, 13200 kPa	339 ± 2
419.9 K, 23100 kPa	368 ± 3
424.9 K, 29000 kPa	414 ± 6
434.9 K, 31000 kPa	426 ± 5
439.9 K, 14300 kPa	355 ± 2
439.9 K, 26100 kPa	390 ± 3
444.9 K, 33100 kPa	438 ± 5
459.9 K, 29100 kPa	411 ± 3
460 K, 15500 kPa	369 ± 2
460 K, 36100 kPa	456 ± 4
474.9 K, 39200 kPa	472 ± 4
479.9 K, 16500 kPa	383 ± 2
479.9 K, 32000 kPa	430 ± 3
